Data from patent publication US20240301322A1, “FUNCTIONALIZED BIODEGRADABLE SURFACTANTS AND METHODS USE” (Locus Solutions IPCo, LLC, priority 2023, published 2024).

Assays:
[1] = tested on: Staphylococcus aureus (G+); experiment: Stability study at pH 7 over 4 days, log reduction of S. aureus; type: cell-based; conditions: pH 7, 100 ppm; for Activity Reduction S. aureus (G+) 100 ppm 5 min: loss of log reduction Day 0 to Day 4
Experimental: FIGS. 3A-3B depict a comparison of pH stability between lauryl arginine ethyl ester (LRE) and a cationic amino alcohol surfactant according to an embodiment of the subject invention (LRO) in different conditions of incubation at pH 7 (A) and pH 10 (B). Oven=45° C., 50% relative humidity; ambient=room temperature.
(§1) Studies were conducted to determine the antimicrobial capabilities of cationic arginine derivatized surfactants produced according to embodiments of the subject invention.
(§2) The test organisms were a mixture of Gram-negative and Gram-positive organisms, which served to validate the breadth of the spectrum of control and the utility of the technology for common pathogens of public health concern: Pseudomonas aeruginosa (Gram-negative), Staphylococcus aureus (Gram-positive) and Salmonella entericus (Gram-negative).
(§3) Test bacteria were grown at 32° C. for 24-48 hours in tryptic soy broth, then plated at a starting concentration of 10^7. PBS was used for dilution to achieve the desired cell concentration.
(§4) A stock solution of each antimicrobial treatment was created in water, which was then used to create each desired dilution for treatment: 25, 50, 200, 400, 500, 750, 1,000, 1,500, 2,000 and 4,000 ppm, in an appropriate volume of buffer. Buffers included 100 mM of citric acid, ammonium HCL, PBS or sodium bicarbonate.
(§5) The created cell dilution of 10^7 CFU/mL was mixed with either 100 uL to 900 uL of antimicrobial at the appropriate PPM, or 1-9 mL of antimicrobial at the appropriate PPM. The final concentration of the organism was […] once mixed with the antimicrobial.
(§6) The moment the organism was added to the antimicrobial, the timer was started for the desired time period (0, 2, 5, 6 or 10 min). At the end of the timer, the antimicrobial was neutralized, and dilutions were then plated onto TSA plates and incubated for 24-48 hours at 32° C.
(§7) The negative control comprised 0.1 mL from the organism stock plated onto a TSA plate. For the positive control a serial dilution was set up with a starting concentration of 400 PPM quaternary ammonium compound (QAC) and organism. Dilutions were plated at 102, 103 and 104 CFU/mL.
(§8) After 24 to 48 hours of incubation, plates were removed from the incubator and colony numbers were counted.
(§9) The below scale is commonly used in determining a compound's efficacy, where a greater than or equal to 6-fold logarithmic (≥6 log) reduction in less than 10 minutes is needed for disinfection.
Tables 10-11 summarize the pH stability over 4 days for a C12 cationic amino alcohol surfactant according to embodiments of the subject invention, LRO (RO), compared with LAE (RE), where LRO was produced through the coupling of a lauroyl chloride substrate and arginine ethyl ester. Log reductions were measured according to the procedures described above in Example 7.

Salmonella enterica (G-) = experiment: Stability study at pH 7 over 4 days, log reduction of S. enterica; type: cell-based; conditions: pH 7, 100 ppm; for Activity Reduction S. enterica (G-) 100 ppm 5 min: loss of log reduction Day 0 to Day 4
[2] = Surface tension at 1000 ppm; type: physicochemical
Experimental: (§10) Table 8 summarizes surface tension reduction at 1000 ppm and log reduction of P. aeruginosa at 0 and 10 min. (200 ppm) for two C12 cationic amino alcohol surfactants according to embodiments of the subject invention, LRO (R) and LKO (K), where LRO was produced through the coupling of a lauroyl chloride substrate and arginine ethyl ester and LKO was produced through the coupling of a lauroyl chloride substrate and lysine ethyl ester.
(§11) Table 9 summarizes surface tension reduction at 1000 ppm and log reduction of S. aureus and S. enterica at 0 and 10 min. (200 ppm) for four categories of cationic amino alcohol surfactants according to embodiments of the subject invention.

[3] = tested on: Staphylococcus aureus (Gram-positive); experiment: Microbial kill study, log reduction of Staphylococcus aureus; type: cell-based
Experimental: as §1, §2, §3, §4, §5, §6, §7, §8, §9, §11
(§12) The surfactants were produced through the coupling of octanoyl chloride (C8); decanoyl chloride (C10); lauroyl chloride (C12); myristyroyl chloride (C14); palmitoyl chloride (C16); or a linear sophorolipid (SLP), with: arginine ethyl ester (R), histidine ethyl ester (H) or lysine ethyl ester (K).

[4] = tested on: Salmonella enterica (Gram-negative); experiment: Microbial kill study, log reduction of Salmonella enterica; type: cell-based
Experimental: as §1, §2, §3, §4, §5, §6, §7, §8, §9, §11, §12

[5] = tested on: Pseudomonas aeruginosa (Gram-negative); experiment: Microbial kill study, log reduction of Pseudomonas aeruginosa; type: cell-based
Experimental: as §1, §2, §3, §4, §5, §6, §7, §8, §9, §10

Compound | Surface Tension 1000 ppm ([2]; Table 9) [mN/m] | Log Reduction S. aureus (G+) 200 ppm, 0 min [3] | Log Reduction S. aureus (G+) 200 ppm, 10 min [3] | Log Reduction S. enterica (G-) 200 ppm, 0 min [4] | Log Reduction S. enterica (G-) 200 ppm, 10 min [4] | also measured
CCCCCCCCCCCC(=O)N[C@@H](CCCNC(=N)N)C(=O)OCC [C12 R E, lauroyl arginine ethyl ester, reference compound] | – | – | – | – | – | Log Reduction S. aureus (G+) 100 ppm, 0 min ([1]; Day 0 Stability): 0.00; Log Reduction S. aureus (G+) 100 ppm, 2 min ([1]; Day 0 Stability): 6.53; Log Reduction S. aureus (G+) 100 ppm, 5 min ([1]; Day 0 Stability): 6.53; Log Reduction S. aureus (G+) 100 ppm, 0 min ([1]; Day 4 Accelerated Stability): 0.00; Log Reduction S. aureus (G+) 100 ppm, 2 min ([1]; Day 4 Accelerated Stability): 0.93; Log Reduction S. aureus (G+) 100 ppm, 5 min ([1]; Day 4 Accelerated Stability): 1.14; Activity Reduction S. aureus (G+) 100 ppm 5 min [1]: 82.54%; Log Reduction S. enterica (G-) 100 ppm, 0 min (Salmonella enterica (G-); Day 0 Stability): 0.00; Log Reduction S. enterica (G-) 100 ppm, 2 min (Salmonella enterica (G-); Day 0 Stability): 6.42; Log Reduction S. enterica (G-) 100 ppm, 5 min (Salmonella enterica (G-); Day 0 Stability): 6.42; Log Reduction S. enterica (G-) 100 ppm, 0 min (Salmonella enterica (G-); Day 4 Accelerated Stability): 0.00; Log Reduction S. enterica (G-) 100 ppm, 2 min (Salmonella enterica (G-); Day 4 Accelerated Stability): 0.00; Log Reduction S. enterica (G-) 100 ppm, 5 min (Salmonella enterica (G-); Day 4 Accelerated Stability): 0.00; Activity Reduction S. enterica (G-) 100 ppm 5 min (Salmonella enterica (G-)): 100.00%
CCCCCCCCCC(=O)NC(CO)Cc1c[nH]cn1 (centres unmarked) [C10 H O] | 50.30 | 0.00 | 0.00 | 0.00 | 0.00 | –
linear sophorolipid argininol amide [SLP R O] | 41.89 | 0.00 | 2.23 | 0.00 | 0.00 | –
CCCCCCCCCCCCCC(=O)NC(CO)Cc1c[nH]cn1 (centres unmarked) [C14 H O] | 22.77 | 0.00 | 0.00 | 0.00 | 0.00 | –
CCCCCCCCCCCCCC(=O)NC(CO)CCCNC(=N)N (centres unmarked) [C14 R O] | 39.54 | 0.00 | 6.36 | 0.00 | 6.11 | –
CCCCCCCCCCCC(=O)NC(CO)Cc1c[nH]cn1 (centres unmarked) [C12 H O] | 27.36 | 0.00 | 0.00 | 0.00 | 0.00 | –
CCCCCCCCCC(=O)NC(CO)CCCNC(=N)N (centres unmarked) [C10 R O] | 28.30 | 0.00 | 6.30 | 0.00 | 6.30 | –
CCCCCCCC(=O)NC(CO)CCCNC(=N)N (centres unmarked) [C8 R O] | 32.15 | 0.00 | 0.87 | 0.00 | 0.00 | –
CCCCCCCCCCCC(=O)NC(CO)CCCNC(=N)N (centres unmarked) [C12 R O, lauryl argininol alcohol] | 23.75 | 0.00 | 6.24 | 0.00 | 6.20 | Surface Tension 1000 ppm ([2]; Table 8): 23.75 mN/m; Log Reduction 200 ppm, 0 min (Pseudomonas aeruginosa) [5]: 1.85; Log Reduction 200 ppm, 10 min (Pseudomonas aeruginosa) [5]: 6.25; Log Reduction S. aureus (G+) 100 ppm, 0 min ([1]; Day 0 Stability): 0.00; Log Reduction S. aureus (G+) 100 ppm, 2 min ([1]; Day 0 Stability): 2.17; Log Reduction S. aureus (G+) 100 ppm, 5 min ([1]; Day 0 Stability): 6.53; Log Reduction S. aureus (G+) 100 ppm, 0 min ([1]; Day 4 Accelerated Stability): 0.00; Log Reduction S. aureus (G+) 100 ppm, 2 min ([1]; Day 4 Accelerated Stability): 0.76; Log Reduction S. aureus (G+) 100 ppm, 5 min ([1]; Day 4 Accelerated Stability): 6.53; Activity Reduction S. aureus (G+) 100 ppm 5 min [1]: 0.00%; Log Reduction S. enterica (G-) 100 ppm, 0 min (Salmonella enterica (G-); Day 0 Stability): 0.00; Log Reduction S. enterica (G-) 100 ppm, 2 min (Salmonella enterica (G-); Day 0 Stability): 1.32; Log Reduction S. enterica (G-) 100 ppm, 5 min (Salmonella enterica (G-); Day 0 Stability): 2.36; Log Reduction S. enterica (G-) 100 ppm, 0 min (Salmonella enterica (G-); Day 4 Accelerated Stability): 0.00; Log Reduction S. enterica (G-) 100 ppm, 2 min (Salmonella enterica (G-); Day 4 Accelerated Stability): 0.00; Log Reduction S. enterica (G-) 100 ppm, 5 min (Salmonella enterica (G-); Day 4 Accelerated Stability): 0.79; Activity Reduction S. enterica (G-) 100 ppm 5 min (Salmonella enterica (G-)): 66.53%
CCCCCCCCCCCC(=O)NC(CO)CCCCN (centres unmarked) [C12 K O] | 27.82 | 0.00 | 4.60 | 0.00 | 6.16 | Surface Tension 1000 ppm ([2]; Table 8): 27.82 mN/m; Log Reduction 200 ppm, 0 min (Pseudomonas aeruginosa) [5]: 0.54; Log Reduction 200 ppm, 10 min (Pseudomonas aeruginosa) [5]: 6.25
CCCCCCCCCCCCCCCC(=O)NC(CO)CCCNC(=N)N (centres unmarked) [C16 R O] | 37.63 | 0.00 | 4.10 | 0.00 | 2.86 | –
CCCCCCCC(=O)NC(CO)Cc1c[nH]cn1 (centres unmarked) [C8 H O] | 57.78 | 0.00 | 0.00 | 0.00 | 0.00 | –
